We go through 8 compounds from patent publication US20250332300A1 (priority 2024, published 2025).

The format of data set [1] is physicochemical. The method, then: Radio-HPLC Analytical Method: Eluent A: Water+0.1% TFA; Eluent B: ACN+0.1% TFA; Column temperature: 25° C.; Flow: 1.0 mL/min; Column: […] Gradient: hold 10% B for 1 min, from 10 to 80% B in 8 min, hold 80% B for 2 min, from 80 to 15% B in 1 min. Radio-iTLC Analytical Method: […] For Lu-177 and Ga-68, the radiotracer-spotted iTLC plates were directly read in a radio-TLC scanner after developing in a sodium citrate 0.1M (pH 4.6) mobile phase. Rf([^177Lu/^68Ga]Lu/Ga-labeled compounds)=0.0-0.5 and Rf (unchelated ^177Lu^3+/^68Ga^3+)=0.5-1.0. The initial radiochemical purity of the [^177Lu]Lu-labeled compounds was analyzed by […] and […] and the stability in solution at 24° C. was evaluated after the end of synthesis by radio-HPLC.

Where [2] appears, read: amide bond, 30-membered ring, PyAOP/DIEA, DMF, resin, […], 50.0 °C, with chain assembly.

Where two headings read alike, the source gives them in different places.

As for `CC(=O)NCCCC[C@H]1C(=O)N[C@@H](Cc2c[nH]c3ccc(O)cc23)C(=O)N[C@@H](Cc2c[nH]c3ccccc23)C(=O)N[C@@H](C2CC2)C(=O)N(C)[C@H](C(=O)N(C)[C@@H](Cc2ccc(F)cc2)C(=O)N[C@@H](CCCCNC(=O)CN2CCN(CC(=O)O)CCN(CC(=O)O)CCN(CC(=O)O)CC2)C(N)=O)CNC(=O)CCC[C@H](NC(C)=O)C(=O)N[C@H](Cc2ccc(O)cc2)C(=O)N[C@H](CO)C(=O)N(C)[C@@H](CCc2ccccc2)C(=O)N1C` [Example H4, Example B4 labelled with ^177Lu, metal not drawn], in data set [1], the “Radiochemical purity by radio-HPLC, stability in solution, 5 h (%)” value came to 98.6%; the “Radiochemical purity by radio-HPLC, stability in solution, 24 h (%)” value worked out at 98.2%; the “Radiochemical purity by radio-HPLC, stability in solution, 48 h (%)” value amounted to 97.6%; the “Radiochemical purity by radio-HPLC, stability in solution, 72 h (%)” value is 97.8%. The compound “2-(4-(((S)-5-((S)-2-((3S,6S,9S,12S,15S,18S,21S,24S,27S)-9-((1H-indol-3-yl)methyl)-15-(4-acetamidobutyl)-27-(5,39-dioxo-43-((3aS,4S,6aR)-2-oxohexahydro-1H-thieno[3,4-d]imidazol-4-yl)-8,11,14,17,20,23,26,29,32,35-decaoxa-4,38-diazatritetracontanamido)-12-((5-hydroxy-1H-indol-3-yl)methyl)-24-(4-hydroxybenzyl)-6-((S)-1-hydroxyethyl)-21-(hydroxymethyl)-N,4,16,19-tetramethyl-5,8,11,14,17,20,23,26,30-nonaoxo-18-phenethyl-1,4,7,10,13,16,19,22,25-nonaazacyclotriacontane-3-carboxamido)-3-(4-fluorophenyl)propanamido)-6-amino-6-oxohexyl)carbamoyl)piperazin-1-yl) acetic acid TFA salt” gave a ring closure, yield after HPLC under setting [2] of 0.5%.

In turn, “2-((1E,3E)-5-((E)-1-(6-(((S)-5-((S)-2-((3S,6S,9S,12S,15S,18S,21S,24S,27S)-9-((1H-indol-3-yl)methyl)-27-acetamido-15-(4-acetamidobutyl)-12-((5-hydroxy-1H-indol-3-yl)methyl)-24-(4-hydroxybenzyl)-6-((S)-1-hydroxyethyl)-21-(hydroxymethyl)-N,4,16,19-tetramethyl-5,8,11,14,17,20,23,26,30-nonaoxo-18-phenethyl-1,4,7,10,13,16,19,22,25-nonaazacyclotriacontane-3-carboxamido)-3-(4-fluorophenyl)propanamido)-6-amino-6-oxohexyl)amino)-6-oxohexyl)-3,3-dimethyl-5-sulfoindolin-2-ylidene)penta-1,3-dien-1-yl)-1-ethyl-3,3-dimethyl-3H-indol-1-ium-5-sulfonate” displayed a ring closure, yield after HPLC under setting [2] of 1.7%.

In the case of “Ac-hGlu-Tyr-Ser-MehPhe-MeLys(COCH2OH)-Trp(5-OH)-Trp-Gly(cPr)-MeDap-MePhe(4-F)-Lys(Alloc)-NH2?”, the ring closure, yield after HPLC (the molecule shown is the open-chain precursor, amide bond, 31-membered ring, PyAOP/DIEA, then Pd(PPh3)4/PhSiH3, DMF, 5.0 mM, with chain assembly) worked out at 10.3%. For “HOOC(CH2)4CO-Tyr-Ser-MehPhe-MeLys(Ac)-Trp(5-OH)-Trp-Gly(cPr)-MeDap-MePhe(4-F)-Lys(Boc)-NH2?”, the ring closure, yield after HPLC (the molecule shown is the open-chain precursor, amide bond, 31-membered ring, PyAOP/Et3N, DCM, 0.52 mM) was determined as 51%. Turning to “4-(((3S,6S,9S,12S,15S,18S,21S,24S,27S)-9-((1H-indol-3-yl)methyl)-15-(4-acetamidobutyl)-6-cyclopropyl-3-(((S)-1-(((S)-1,6-diamino-1-oxohexan-2-yl)amino)-3-(4-fluorophenyl)-1-oxopropan-2-yl)(methyl)carbamoyl)-12-((5-hydroxy-1H-indol-3-yl)methyl)-24-(4-hydroxybenzyl)-21-(hydroxymethyl)-4,16,19-trimethyl-5,8,11,14,17,20,23,26,31-nonaoxo-18-phenethyl-1,4,7,10,13,16,19,22,25-nonaazacyclohentriacontan-27-yl)amino)-4-oxobutanoic acid TFA salt”, the ring closure, yield after HPLC (amide bond, 31-membered ring, PyAOP/Et3N, then TFA, DCM, 0.79 mM, 2 steps) was 61%.

“(3R,6S,9S,12S,15S,18S,21S,24S,27S)-9-((1H-indol-3-yl)methyl)-27-acetamido-N—((S)-1-amino-3-(4-fluorophenyl)-1-oxopropan-2-yl)-6-cyclopropyl-12-((5-hydroxy-1H-indol-3-yl)methyl)-24-(4-hydroxybenzyl)-15,21-bis(hydroxymethyl)-N,4,16,19-tetramethyl-5,8,11,14,17,20,23,26,30-nonaoxo-18-phenethyl-1-thia-4,7,10,13,16,19,22,25,29-nonaazacyclohentriacontane-3-carboxamide” yielded a ring closure, yield after HPLC (thioether bond, 31-membered ring, DIEA, ACN/water, […], with chain assembly) of 6%.

On to “2-((1E,3E)-5-((E)-1-(6-((3-(((3S,6S,9S,12S,15S,18S,21S,24S,27S)-9-((1H-indol-3-yl)methyl)-15-(4-acetamidobutyl)-3-(((S)-1-(((S)-1-amino-6-(4-(carboxymethyl)piperazine-1-carboxamido)-1-oxohexan-2-yl)amino)-3-(4-fluorophenyl)-1-oxopropan-2-yl)(methyl)carbamoyl)-12-((5-hydroxy-1H-indol-3-yl)methyl)-24-(4-hydroxybenzyl)-6-((S)-1-hydroxyethyl)-21-(hydroxymethyl)-4,16,19-trimethyl-5,8,11,14,17,20,23,26,30-nonaoxo-18-phenethyl-1,4,7,10,13,16,19,22,25-nonaazacyclotriacontan-27-yl)amino)-3-oxopropyl)amino)-6-oxohexyl)-3,3-dimethyl-5-sulfoindolin-2-ylidene)penta-1,3-dien-1-yl)-1-ethyl-3,3-dimethyl-3H-indol-1-ium-5-sulfonate TFA salt”, for which, under setting [2], the ring closure, yield after HPLC came out at 2%.
